In US20240197733A1, “A GABA RECEPTOR MODULATOR FOR USE IN THE TREATMENT OF PAIN” (SANIONA A/S, priority 2021, published 2024):

Assays:
[1] = test system: electrocutaneous stimulation-induced facial pain rodent model; test: ES-induced facial pain model, hot thermal hyperalgesia (lamp test), prophylactic and acute treatment; format: in vivo, Sprague-Dawley rats; settings: for development of heat hyperalgesia vs vehicle: day 9 at 0 time
Protocol: Immediately following assessment of mechanical pain threshold, thermal (hot- and cold induced) pain was determined. Hot thermal pain thresholds were assessed by measuring each rat's facial withdrawal latency (seconds) in response to thermal stimulation on the depilated and stimulated rat cheek by using Yeomans' Thermal Testing Lamp with the following settings: Lamp fixed ˜7 cm above depilated left cheek of rat, Voltage regulator was set to 45V for C fiber testing. Cutoff was set at 20 seconds to avoid tissue damage. Unless stated otherwise, the same materials, methods, and provisions of Example 1 were applied to Example 2. The required quantity of the compound is weighed and dissolved in 100% DMSO in a volume amounting to 5% of the total volume while placed on a stirrer. The weight of the compounds refers to the free base weights. Once the solution becomes clear/transparent, the remaining volume of the vehicle is added (30% HPBCD prepared in MQ water) to final concentrations of 0.03, 0.1, and 0.3 mg/ml for Compound 1. The solutions are kept on a stirrer before- and during administration of the compounds to the animals. The experimenter assessing the behavioral responses to drug administration is blinded to the drug treatment to the animals. Each treatment group is coded according the scheme below: • A. Vehicle (5% DMSO+30% HPBCD): 10 ml/kg • B. Compound 1: 0.3 mg/kg • C. Compound 1: 1 mg/kg • D. Compound 1: 3 mg/kg • F. Compound 1: 3 mg/kg—acute Second baseline measurement was carried out similarly to day 1, For each animal, the average of the two baseline nociceptive measurements was calculated within each pain modality (mechanical, heat- and cold pain), and used as baseline (“Baseline” point on figures). Then all rats in the above respective group (A-D) are given treated as mentioned. Group F received vehicle treatment. Treatment is continued once daily to each group same as Day 2 All rats were treated with respective treatment as per day 3-7. After 1 hr of treatment, each rat was subjected to 1 hr of electrocutaneous stimulation at depilated cheek (0.4 mA intensity, 10 ms duration, 1 s inter-pulse interval). Similar to day 1- and 2, all rats were acclimatized to test equipment followed by measurements of ES-induced facial mechanical- heat- and cold allodynia (“0” time point on figures). After measurement of hypersensitivity threshold, rats from group A-D received the vehicle and three doses of Compound 1 as mentioned above while group F received single acute dose of 3 mg/kg of Compound 1. Treatment effects on pain thresholds were evaluated 2- and 4 hours after administration by assessing mechanical- (Von Frey) and thermal (heat and cold) withdrawal threshold.

[2] = test system: electrocutaneous stimulation-induced facial pain rodent model; test: ES-induced facial pain model, cold thermal allodynia (acetone test), prophylactic and acute treatment; format: in vivo, Sprague-Dawley rats; settings: for development of cold allodynia vs vehicle: day 9 at 0 time
Protocol: Cold Thermal threshold was assessed by measuring each rat's facial withdrawal latency (seconds) in response to a single 10 uL drop of acetone directly on the depilated and stimulated rat cheek. Cutoff was set at 60 seconds. Facial withdrawal response criteria were as following: burrowing head, shaking of head back-and-forth, excessive blinking, turning head away from experimenter. Unless stated otherwise, the same materials, methods, and provisions of Example 1 were applied to Example 2. The required quantity of the compound is weighed and dissolved in 100% DMSO in a volume amounting to 5% of the total volume while placed on a stirrer. The weight of the compounds refers to the free base weights. Once the solution becomes clear/transparent, the remaining volume of the vehicle is added (30% HPBCD prepared in MQ water) to final concentrations of 0.03, 0.1, and 0.3 mg/ml for Compound 1. The solutions are kept on a stirrer before- and during administration of the compounds to the animals. The experimenter assessing the behavioral responses to drug administration is blinded to the drug treatment to the animals. Each treatment group is coded according the scheme below: • A. Vehicle (5% DMSO+30% HPBCD): 10 ml/kg • B. Compound 1: 0.3 mg/kg • C. Compound 1: 1 mg/kg • D. Compound 1: 3 mg/kg • F. Compound 1: 3 mg/kg—acute Second baseline measurement was carried out similarly to day 1, For each animal, the average of the two baseline nociceptive measurements was calculated within each pain modality (mechanical, heat- and cold pain), and used as baseline (“Baseline” point on figures). Then all rats in the above respective group (A-D) are given treated as mentioned. Group F received vehicle treatment. Treatment is continued once daily to each group same as Day 2 All rats were treated with respective treatment as per day 3-7. After 1 hr of treatment, each rat was subjected to 1 hr of electrocutaneous stimulation at depilated cheek (0.4 mA intensity, 10 ms duration, 1 s inter-pulse interval). Similar to day 1- and 2, all rats were acclimatized to test equipment followed by measurements of ES-induced facial mechanical- heat- and cold allodynia (“0” time point on figures). After measurement of hypersensitivity threshold, rats from group A-D received the vehicle and three doses of Compound 1 as mentioned above while group F received single acute dose of 3 mg/kg of Compound 1. Treatment effects on pain thresholds were evaluated 2- and 4 hours after administration by assessing mechanical- (Von Frey) and thermal (heat and cold) withdrawal threshold.

[3] = target: GABAA receptors containing the a2 subunit (Homo sapiens, UniProt P18507+P47869); settings: cited from earlier work
Sequence of GABAA receptors containing the a2 subunit (P47869 29-451): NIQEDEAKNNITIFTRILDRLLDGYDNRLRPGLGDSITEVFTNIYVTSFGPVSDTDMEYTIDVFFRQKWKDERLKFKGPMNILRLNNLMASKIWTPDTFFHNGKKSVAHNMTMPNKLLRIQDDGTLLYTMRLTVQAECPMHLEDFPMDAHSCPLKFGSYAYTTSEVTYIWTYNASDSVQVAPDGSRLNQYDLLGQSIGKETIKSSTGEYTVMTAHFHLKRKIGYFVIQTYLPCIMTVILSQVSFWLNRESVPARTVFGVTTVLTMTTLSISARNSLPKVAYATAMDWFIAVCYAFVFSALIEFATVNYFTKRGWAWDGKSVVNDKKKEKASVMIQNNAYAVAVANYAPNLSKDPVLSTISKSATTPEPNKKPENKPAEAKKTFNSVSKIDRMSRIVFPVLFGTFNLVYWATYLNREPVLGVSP
Sequence of GABAA receptors containing the a2 subunit (P47870 25-512 partner limits assumed): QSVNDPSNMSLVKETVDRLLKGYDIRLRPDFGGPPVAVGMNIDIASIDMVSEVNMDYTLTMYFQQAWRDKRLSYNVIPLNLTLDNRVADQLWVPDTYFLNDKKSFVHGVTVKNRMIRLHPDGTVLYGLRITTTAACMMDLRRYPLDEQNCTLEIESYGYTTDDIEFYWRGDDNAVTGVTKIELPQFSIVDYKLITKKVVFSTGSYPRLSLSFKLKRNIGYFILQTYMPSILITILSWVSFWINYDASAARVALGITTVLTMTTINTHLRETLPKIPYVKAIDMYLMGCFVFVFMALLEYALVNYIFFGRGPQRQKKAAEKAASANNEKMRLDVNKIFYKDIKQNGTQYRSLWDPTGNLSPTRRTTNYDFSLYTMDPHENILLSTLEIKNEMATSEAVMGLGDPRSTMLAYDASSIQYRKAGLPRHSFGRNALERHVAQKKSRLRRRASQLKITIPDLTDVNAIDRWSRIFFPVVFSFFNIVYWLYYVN
Sequence of GABAA receptors containing the a2 subunit (P18507 40-475): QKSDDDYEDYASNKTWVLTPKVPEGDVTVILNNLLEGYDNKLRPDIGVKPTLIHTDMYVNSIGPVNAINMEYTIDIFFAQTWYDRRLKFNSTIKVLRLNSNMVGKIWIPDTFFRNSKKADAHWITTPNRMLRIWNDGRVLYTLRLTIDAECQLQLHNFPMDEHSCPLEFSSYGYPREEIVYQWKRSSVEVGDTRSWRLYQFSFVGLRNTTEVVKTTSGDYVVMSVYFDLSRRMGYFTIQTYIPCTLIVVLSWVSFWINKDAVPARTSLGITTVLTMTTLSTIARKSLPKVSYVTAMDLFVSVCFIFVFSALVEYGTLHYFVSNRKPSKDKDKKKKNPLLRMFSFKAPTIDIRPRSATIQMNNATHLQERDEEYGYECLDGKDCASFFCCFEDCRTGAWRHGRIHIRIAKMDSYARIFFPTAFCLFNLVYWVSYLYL

[4] = target: GABAA receptors containing the a5 subunit (Homo sapiens, UniProt P18507+P31644); settings: cited from earlier work
Sequence of GABAA receptors containing the a5 subunit (P31644 32-462): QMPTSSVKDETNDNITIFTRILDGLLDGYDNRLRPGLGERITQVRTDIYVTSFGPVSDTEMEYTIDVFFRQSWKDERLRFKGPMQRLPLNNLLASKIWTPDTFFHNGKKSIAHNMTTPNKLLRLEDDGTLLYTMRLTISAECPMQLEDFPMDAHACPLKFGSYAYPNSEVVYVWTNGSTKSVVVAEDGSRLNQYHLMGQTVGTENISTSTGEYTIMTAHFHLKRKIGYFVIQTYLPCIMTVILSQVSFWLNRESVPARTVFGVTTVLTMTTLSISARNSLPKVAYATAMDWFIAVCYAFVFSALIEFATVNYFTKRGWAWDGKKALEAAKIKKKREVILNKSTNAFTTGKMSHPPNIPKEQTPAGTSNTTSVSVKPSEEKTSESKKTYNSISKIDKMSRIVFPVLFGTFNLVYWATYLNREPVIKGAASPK
Sequence of GABAA receptors containing the a5 subunit (P47870 25-512 partner limits assumed): as the sequence (P47870 25-512 partner limits assumed) above
Sequence of GABAA receptors containing the a5 subunit (P18507 40-475): as the sequence (P18507 40-475) above

[5] = prophylactic 1 mg/kg po once daily for 7 days, p<0.05 vs vehicle
[6] = prophylactic 3 mg/kg po once daily for 7 days, p<0.0001 vs vehicle
[7] = prophylactic 3 mg/kg po plus additional dose on day 9, p<0.0001 post 2 hrs and post 4 hrs

Question: Which “effect on established heat hyperalgesia vs vehicle” value ([1]; acute 3 mg/kg po on day 9, p<0.0001 post 2 and 4 hrs) does the source give for `COc1ncc(-c2cccc(-n3cnc4cc(C(C)(C)O)cnc43)c2)c(OC)n1` [Compound 1, 2-(3-(3-(2,4-dimethoxypyrimidin-5-yl)phenyl)-3H-imidazo[4,5-b]pyridin-6-yl)propan-2-ol] here?
Answer: reversed the heat hyperalgesia

Question: And the “effect on established heat hyperalgesia vs vehicle” value ([1]; prophylactic 0.3 mg/kg po plus additional dose on day 9, p<0.05 post 2 hrs, p<0.001 post 4 hrs)?
Answer: further enhanced the analgesic effect

Question: And the “development of heat hyperalgesia vs vehicle” value [1, 5]?
Answer: significantly reduced the development of heat hyperalgesia

Question: What about the “effect on established heat hyperalgesia vs vehicle” value ([1]; prophylactic 1 mg/kg po plus additional dose on day 9, p<0.0001 post 2 hrs and post 4 hrs) of the same compound?
Answer: further enhanced the analgesic effect

Question: And the “development of heat hyperalgesia vs vehicle” value [1, 6]?
Answer: significantly reduced the development of heat hyperalgesia

Question: What about the “effect on established heat hyperalgesia vs vehicle” value [1, 7] of the same compound?
Answer: further enhanced the analgesic effect

Question: And the “effect on established cold allodynia vs vehicle” value ([2]; acute 3 mg/kg po on day 9, p<0.001 and p<0.0001 post 2 and 4 hrs)?
Answer: reversed the mechanical allodynia

Question: What about the “effect on established cold allodynia vs vehicle” value ([2]; prophylactic 0.3 mg/kg po plus additional dose on day 9, p>0.05 post 2 hrs, p<0.01 post 4 hrs) of the same compound?
Answer: reversed the cold allodynia dose dependently

Question: And the “development of cold allodynia vs vehicle” value [2, 5]?
Answer: significantly reduced the development of cold allodynia

Question: And the “effect on established cold allodynia vs vehicle” value ([2]; prophylactic 1 mg/kg po plus additional dose on day 9, p<0.01 post 2 hrs, p<0.0001 post 4 hrs)?
Answer: reversed the cold allodynia dose dependently

Question: What about the “development of cold allodynia vs vehicle” value [2, 6] of the same compound?
Answer: significantly reduced the development of cold allodynia

Question: What about the “effect on established cold allodynia vs vehicle” value [2, 7] of the same compound?
Answer: reversed the cold allodynia dose dependently

Question: What about the “positive allosteric modulation of GABAA receptors containing the a2 subunit” value [3] of the same compound?
Answer: to a minor extent

Question: And the “positive allosteric modulation of GABAA receptors containing the a5 subunit” value [4]?
Answer: to a minor extent
